The record followed here is patent publication US20230348561A1, “DOMINANT NEGATIVE TGFBETA RECEPTOR POLYPEPTIDES, CD8 POLYPEPTIDES, CELLS, COMPOSITIONS, AND METHODS OF USING THEREOF” (IMMATICS US, INC., priority 2022, published 2023).

The subject of test [1] is effector T cells. The test can be described thus: CellTrace proliferation assay of effector T cells co-cultured with UACC257. It is filed as cell-based, human. To be noted: TCR-only effector cells, E:T 5:1; TGF-β1 2-128 ng/mL; GAL 5 μM; 3 days. As for the experimental part: Transduced cells from one donor (prepared as in Example 17) were thawed, washed, and resuspended in TexMACS medium supplemented with 5% by volume human AB serum (“Complete TexMACS”). Benzonase nuclease was added to a concentration of 50 U/mL and the cells were incubated (rested) overnight in tissue culture-treated flasks at 37° C.
UACC257 tumor cells were harvested using 0.05% trypsin, washed, and counted. Red fluorescent protein (RFP)-labeled tumor cells were plated at 5,000 tumor cells per well in 100 μL in triplicate in a 96-well plate in Complete TexMACS. Plates were placed in an incubator at 37° C.
On the day of co-culture, effector T cells were counted, washed, and resuspended in PBS containing a CellTrace Violet proliferation dye at 1:1000 dilution (1 μL dye per mL PBS) and incubated for 20 minutes at 37° C. […]
Labeled effector T cells were then washed, counted, and resuspended in Complete TexMACS and added in 1 mL per well to previously prepared tumor targets for a total of 2 mL per well at an effector:target (E:T) ratio of 5:1. […]
UACC257 tumor cells were harvested using 0.05% trypsin, washed, and counted. […]
On the day of co-culture, cells from two donors prepared and sorted as in Example 19 were counted, washed, and resuspended in PBS containing a CellTrace Violet proliferation dye at 1:1000 dilution (1 μL dye per mL PBS) and incubated for 20 minutes at 37° C. […]

Test [2] deals with UACC257-RFP tumor cells. Briefly: Tumor death assays with TGF-β1/galunisertib and serial tumor challenges (IncuCyte). It is filed as cell-based. To be noted: TCR-only effector cells, E:T 5:1; TGF-β1 8 or 128 ng/mL; GAL 5 μM. The method, then: Cells prepared as in Example 17 were thawed, washed, and resuspended in TexMACS medium supplemented with 5% by volume human AB serum (“Complete TexMACS”). Benzonase nuclease was added to a concentration of 50 U/mL and the cells were incubated (rested) overnight in tissue culture-treated flasks at 37° C.
UACC257 tumor cells were harvested using 0.05% trypsin, washed, and counted. Red fluorescent protein (RFP)-labeled tumor cells (“UACC257-RFP”) were plated at 5,000 to 10,000 per well in a flat-bottomed 96-well plate in 100 μL of Complete TexMACS. Plates were placed in an incubator at 37° C. UACC257 cells express high levels of the antigen PRAME (preferentially expressed antigen in melanoma).
Transduced cells (effector) and tumor cells (target) were co-cultured in 96 well tissue culture plates. Effector/target co-culture plates were placed into an IncuCyte ZOOM imager at 37° C. and 5% CO2 and imaged every 2 hours for the duration of 3 to 12 days. Data was exported from the IncuCyte ZOOM software into Microsoft Excel and GraphPad Prism for further analysis. Fold tumor growth (RFP+ cell count) was normalized to 0 hr timepoint.
TCR-only transduced cells from one donor (prepared as in Example 17) were co-cultured with UACC257 tumor cells, as described in Example 20, at an effector:target (E:T) ratio of 5:1. […]

Test [3] relates to pSMAD2/3. The test can be described thus: Phospho-SMAD intracellular staining assay. It counts as cell-based, human. The conditions noted are these: 5 ng/mL TGFβ; vs non-transduced cells. The method, then: SMAD is a signal transducer in the TGFβ signaling pathway. SMAD is phosphorylated in response to binding of TGFβ to its receptor and facilitates expression of TGFβ-responsive genes.
Non-transduced cells and cells expressing dnTGFβvar1 or dnTGFβvar2 (prepared as in Example 17) were thawed and washed in TexMACS medium supplemented with 5% by volume human AB serum (“Complete TexMACS”). They were subsequently resuspended in unsupplemented TexMACS to rest under serum starvation overnight at 37° C. After overnight rest, effector cells were counted and the concentration was adjusted as necessary and 100 μL aliquots were added into a flat-bottomed 96-well tissue culture plate. To avoid stimulating SMAD phosphorylation from the manipulation of cells during counting/plating, cells were further rested about 2 hours in serum-free TexMACS at 37° C.
After 2 hours, 50 μL of a 3× solution of TGF-β1 (15 ng/mL) and/or GAL (15 μM) was added to the plated effector cells for final 1× concentrations of 5 ng/mL TGF-β1 and/or 5 μM GAL, respectively. For untreated cells, 50 μL of untreated medium was added. […]
Following permeabilization, cells were washed twice with Flow Buffer (PBS, 1% FBS, 0.1% sodium azide). […] Cytometry data files were analyzed in FlowJo. pSMAD+ percentages were reported as a proportion of all live lymphocytes. […]

As to `Cc1cccc(-c2nn3c(c2-c2ccnc4ccc(C(N)=O)cc24)CCC3)n1` [GAL, Galunisertib], the “Division Index / proliferation of effector T cells” value in test [1] was “rescued”. In addition, the “tumor fold growth of UACC257-RFP cells” value in test [2] is recorded as “rescues or enhances ability of effector cells to kill tumor cells”. The like results for “TGF-β1: exogenous cytokine added to co-cultures” were, in that order, “suppresses proliferation of effector T cells” and “reduced the anti-tumor cytotoxicity of the effector cells”.

B1: dnTGFβRIIvar1: dominant negative TGFβRII variant 1, SEQ ID NO: 305, encoded by SEQ ID NO: 306; lentiviral vector SEQ ID NO: 312 (protein)
chain: MGRGLLRGLWPLHIVLWTRIASTIPPHVQKSDVEMEAQKDEIICPSCNRTAHPLRHINNDMIVTDNNGAVKFPQLCKFCDVRFSTCDNQKSCMSNCSITSICEKPQEVCVAVWRKNDENITLETVCHDPKLPYHDFILEDAASPKCIMKEKKKPGETFFMCSCSSDECNDNIIFSEEYNTSNPDLLLVIFQVTGISLLPPLGVAISVIIIFYCYRVNRQQKLSS
modifications: Dominant Negative TGFbetaRII var1 Amino Acid Sequence
As for B1, the “percentage of all lymphocytes positive for pSMAD” value in test [3] is recorded as “reduced phosphorylated SMAD”.

B2: dnTGFβRIIvar2: dominant negative TGFβRII variant 2, SEQ ID NO: 307, encoded by SEQ ID NO: 308; lentiviral vector SEQ ID NO: 313 (protein)
chain: MGRGLLRGLWPLHIVLWTRIASTIPPHVQKSVNNDMIVTDNNGAVKFPQLCKFCDVRFSTCDNQKSCMSNCSITSICEKPQEVCVAVWRKNDENITLETVCHDPKLPYHDFILEDAASPKCIMKEKKKPGETFFMCSCSSDECNDNIIFSEEYNTSNPDLLLVIFQVTGISLLPPLGVAISVIIIFYCYRVNRQQKLSS
modifications: Dominant Negative TGFbetaRII var2 Amino Acid Sequence
B2: the “percentage of all lymphocytes positive for pSMAD” value in test [3] is listed as “reduced phosphorylated SMAD”.
